Test results from ChEMBL document CHEMBL1201862, “PubChem BioAssay data set” (2004).
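Each compound was tested at five concentrations against cells in 96-well plates for 48 hours. Abbreviation: GI50, concentration required for 50% inhibition of growth.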 Calls of active or inactive are those of the source. No stated cut-off is given here; in the data, active = GI50 up to about 1.1 µM and inactive = higher.

Columns and labels:
Assay in all cases: inhibition of tumour cell growth, NCI panel, 48 h
786-0 = tested on: 786-0
A498 = tested on: A498
A549 = tested on: A549
ACHN = tested on: ACHN
CAKI-1 = tested on: CAKI-1
CCRF-CEM = tested on: CCRF-CEM
COLO 205 = tested on: COLO 205
DLD-1 = tested on: DLD-1
DMS-114 = tested on: DMS-114
DMS-273 = tested on: DMS-273
EKVX = tested on: EKVX
HCC 2998 = tested on: HCC 2998
HCT-116 = tested on: HCT-116
HCT-15 = tested on: HCT-15
HL-60 = tested on: HL-60
HOP-18 = tested on: HOP-18
HOP-62 = tested on: HOP-62
HOP-92 = tested on: HOP-92
HT-29 = tested on: HT-29
IGROV-1 = tested on: IGROV-1
K562 = tested on: K562
KM-20L2 = tested on: KM-20L2
KM12 = tested on: KM12
LOX IMVI = tested on: LOX IMVI
LXFL 529 = tested on: LXFL 529
M14 = tested on: M14
M19-MEL = tested on: M19-MEL
Malme-3M = tested on: Malme-3M
NCI-H226 = tested on: NCI-H226
NCI-H23 = tested on: NCI-H23
NCI-H460 = tested on: NCI-H460
NCI-H522 = tested on: NCI-H522
OVCAR-3 = tested on: OVCAR-3
OVCAR-4 = tested on: OVCAR-4
OVCAR-5 = tested on: OVCAR-5
OVCAR-8 = tested on: OVCAR-8
RPMI-8226 = tested on: RPMI-8226
RXF 393 = tested on: RXF 393
SF-268 = tested on: SF-268
SF-295 = tested on: SF-295
SF-539 = tested on: SF-539
SK-MEL-28 = tested on: SK-MEL-28
SK-MEL-2 = tested on: SK-MEL-2
SK-MEL-5 = tested on: SK-MEL-5
SK-OV-3 = tested on: SK-OV-3
SN12C = tested on: SN12C
SNB-19 = tested on: SNB-19
SNB-75 = tested on: SNB-75
SNB-78 = tested on: SNB-78
SR = tested on: SR
SW-620 = tested on: SW-620
TK-10 = tested on: TK-10
U-251 = tested on: U-251
UACC-257 = tested on: UACC-257
UACC-62 = tested on: UACC-62
UO-31 = tested on: UO-31

Measured: GI50

C=CCc1ccc(Oc2cc(CC=C)c3c(c2O)O[C@@H](CO)[C@H]3c2ccc(O)c(-c3cc(CC=C)ccc3O)c2)cc1
30.2 µM: HCT-15
inactive: 786-0 54 µM | A498 80 µM | A549 > 100 µM | ACHN 67 µM | CAKI-1 > 100 µM | CCRF-CEM 20.5 µM | COLO 205 52 µM | DLD-1 52.1 µM | DMS-114 22.5 µM | DMS-273 42.9 µM | EKVX 46.7 µM | HCC 2998 45.9 µM | HCT-116 61.9 µM | HL-60 23.8 µM | HOP-18 > 100 µM | HOP-62 55.7 µM | HOP-92 52.2 µM | HT-29 23.4 µM | IGROV-1 32.7 µM | K562 37.6 µM | KM-20L2 32.9 µM | KM12 35.3 µM | LOX IMVI 16.5 µM | LXFL 529 30.8 µM | M14 47.6 µM | M19-MEL 42.2 µM | Malme-3M > 100 µM | NCI-H226 67.1 µM | NCI-H23 47.3 µM | NCI-H460 24 µM | NCI-H522 18.3 µM | OVCAR-3 33 µM | OVCAR-4 54.7 µM | OVCAR-5 > 100 µM | OVCAR-8 41.7 µM | RPMI-8226 32.5 µM | RXF 393 65.2 µM | SF-268 58.7 µM | SF-295 67.1 µM | SF-539 40.9 µM | SK-MEL-28 25.8 µM | SK-MEL-2 24.3 µM | SK-MEL-5 87.3 µM | SK-OV-3 > 100 µM | SN12C 41.9 µM | SNB-19 39.5 µM | SNB-75 > 100 µM | SNB-78 52 µM | SR 12.4 µM | SW-620 33.9 µM | TK-10 > 100 µM | U-251 23.1 µM | UACC-257 > 100 µM | UACC-62 30.1 µM | UO-31 77.1 µM
